Patent publication US8962691B2, “Retinoid replacements and opsin agonists and methods for the use thereof” (University of Washington, priority 2003, dated 2015)
Blank lines part the entries; values can stand above or below the substance they belong to.

What was measured:
[1] = target: T1, opsin (Bos taurus, UniProt P02699); experiment: Photoisomerization (bleaching) of 11-cis-7-ring-retinals in solution and bound to opsin
T1 construct: Preparation of rod outer segment, opsin, rhodopsin regeneration with retinals; from tissue; host or cells: rod outer segments
Protocol: Preparation of rod outer segment, opsin, rhodopsin regeneration with retinals, and purification of rhodopsin on a concanavalin A-Sepharose 4B column were conducted as described previously (Jang et al., J. Biol. Chem. 276:26148-53 (2001)).

[2] = target: T2, rhodopsin (Bos taurus, UniProt P02699); experiment: FTIR spectroscopy of regenerated rhodopsin; assay type: biochemical; details: for FTIR difference spectra of regenerated rhodopsin upon photoactivation: 7-ring analogs
T2 construct: Opsin membranes (24 μM) (Sachs et al., J. Biol. Chem. 275:6189-94 (2000)); from tissue; rod outer segment membranes by inference
Protocol: Opsin membranes (24 μM) (Sachs et al., J. Biol. Chem. 275:6189-94 (2000)) were incubated overnight with 240 μM 11-cis-retinal or with the mixture of either 11-cis-6-ring- or 11-cis-7-ring-retinal isomers in the BTP buffer (20 mM BTP, pH 7.5, containing 1 mM MgCl2 and 130 mM NaCl). Suspensions of membranes were centrifuged for 25 minutes at 100,000×g and resuspended in the BTP buffer to yield 2.2 mM rhodopsin (from absorption at 500 nm). […] For H2O/D2O exchange, the pellet was resuspended three times in deuterated buffer. The buffer solution was removed, and the pellet transferred to a 30-mm-diameter temperature-controlled transmission cell with two BaF2 windows and a 3 μm polytetrafluoroethylen gasket. The spectra were recorded using a Bruker ifs 66-V spectrometer (Bard et al., FEBS Lett. 473:259-64 (2000)). For all samples, Meta II minus rhodopsin difference spectra were produced.

[3] = tested on: Gt; experiment: Kinetic light scattering (Gt activation); assay type: biochemical
Protocol: Light-scattering changes were measured as previously described (Heck et al., Methods Enzymol. 315:32947 (2000)). Measurements were performed in 10-mm path cuvettes with 300-μl volumes in isotonic buffer (20 mM BTP, 130 mM NaCl, and 1 mM MgCl2, pH 6.4, as indicated in the legend to FIG. 6) at 22° C. with a 5-ms dwell time of the A/D converter (Nicolet 400, Madison, Wis.). Samples contained membrane suspension (3 μM rhodopsin) reconstituted with purified Gt (0.8 μM) and 1 mM GTP. Reactions were triggered by flash photolysis of rhodopsin with a green (500±20 nm) flash attenuated by appropriate neutral density filters. The flash intensity was quantified photometrically by the amount of rhodopsin bleached and expressed in terms of the mole fraction of photoexcited rhodopsin (Rh*/Rh).

[4] = tested on: Rpe65−/− mice
Protocol: Mice were anesthetized by intraperitoneal injection with 15 μl/g body weight of 6 mg/ml ketamine and 0.44 mg/ml xylazine diluted with 10 mM phosphate buffer, pH 7.2, containing 100 mM NaCl. The pupils were dilated with 1% tropicamide. A contact lens electrode was placed on the eye with a drop of methylcellulose, and a ground electrode (a reference electrode) was placed in the ear. ERGs were recorded with the universal testing and electrophysiologic system 3000 (UTAS E-3000) (LKC Technologies, Inc.). The mice were placed in a Ganzfield chamber, and responses to flash stimuli were obtained from both eyes simultaneously. […] Two to four recordings were made with >10-second intervals. Typically, 4-8 animals were used for recording of each point in all conditions. All ERG measurements were done within 10-40 minutes after anesthesia.

[5] = tested on: Rpe65−/− mice; experiment: In vivo regeneration of rhodopsin with 6- and 7-ring isomers; set-up: species or system mouse
Text: All animal studies employed procedures approved by the University of Washington Animal Care Committee and conformed to recommendations of the American Veterinary Medical Association Panel on Euthanasia. All animals were maintained in complete darkness, and all manipulations were done under dim red light employing a Kodak No. 1 Safelight filter (transmittance >560 nm). Typically, 2-3-month-old mice were used in all studies. RPE65-deficient mice were obtained from M. Redmond (National Eye Institute, National Institutes of Health. Bethesda, Md.) and genotyped as described previously (Redmond et al., Nat. Genet. 20:344-51 (1998; Redmond et al. Methods Enzymol. 316:705-24 (2000)).
All procedures were performed under dim red light as described previously (Van Hooser et al., Proc. Natl. Acad. Sci. USA 97:862328 (2000); Jang. et al., J. Biol. Chem. 276:3245665 (2001); Palczewski et al., Biochemistry 38:12012-19 (1999)).

[6] = tested on: rhodopsin kinase; experiment: Phosphorylation of regenerated rhodopsin by rhodopsin kinase; assay type: biochemical; details: in vitro
Protocol: Regenerated rhodopsin (2 mg/ml) was mixed in 100 μl of 100 mM sodium phosphate buffer, pH 7.2, containing 5 mM MgCl2, 0.5 mM [^32P]ATP (approximately 35,000 to approximately 50,000 cpm/nmol) and purified rhodopsin kinase (approximately 5 μg of protein), and the assay was carried out as described previously (Palczewski et al., J. Biol. Chem. 266:1294955 (1991)). Studies were performed in triplicate.

T1 sequence (P02699 whole entry): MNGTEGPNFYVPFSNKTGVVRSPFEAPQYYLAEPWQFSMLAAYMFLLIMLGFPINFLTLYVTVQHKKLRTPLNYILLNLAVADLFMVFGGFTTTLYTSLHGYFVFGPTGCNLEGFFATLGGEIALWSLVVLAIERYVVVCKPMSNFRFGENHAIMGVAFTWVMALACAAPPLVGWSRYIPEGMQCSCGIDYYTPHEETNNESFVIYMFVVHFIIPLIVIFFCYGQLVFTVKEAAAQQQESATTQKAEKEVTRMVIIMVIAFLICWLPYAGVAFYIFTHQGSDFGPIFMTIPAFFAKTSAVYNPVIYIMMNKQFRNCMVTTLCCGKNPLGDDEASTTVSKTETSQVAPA
T2 sequence (P02699 whole entry): as above

Substance: 9,11,13-tri-cis-7-ring retinal [isomer 1]
abundance in isomer mixture after bleaching ([1]; bleaching 7-ring-retinoids in solution): least abundant isomer
FTIR difference spectra of regenerated rhodopsin upon photoactivation [2]: only minor changes in the difference spectra

Substance: 9,11-di-cis-7-ring retinal [isomer 4]
FTIR difference spectra of regenerated rhodopsin upon photoactivation [2]: only minor changes in the difference spectra

Substance: 11,13-di-cis-7-ring retinal [isomer 2]
isomerization when bound to opsin [1]: converts readily to isomer 3 even in the dark
FTIR difference spectra of regenerated rhodopsin upon photoactivation [2]: inactive

pKa of the light-induced active species [2]: 5.4
FTIR: activity after bleaching ([2]; pH 7.5): only residual activity
Substance: 11-cis-6-ring-rhodopsin: rhodopsin regenerated with 11-cis-6-ring-retinal (2-carbon bridge)
activity relative to the 7-locked pigment [3]: markedly higher
FTIR: photoproduct after bleaching ([2]; pH 4.5): Meta II-like product that is able to bind Gt-(340-350) derived peptide

Substance: 11-cis-6-ring-retinal
activity of rhodopsin regenerated in vivo ([4]; Rpe65−/− mice): active at higher bleaches
ERG activity (a- and b-wave) compared with Me2SO ([4]; mouse, in vivo): clearly elevated
sensitivity of activity to hydroxylamine [3]: sensitive to hydroxylamine
intensity of activating light flash needed for Gt activation rates comparable to wild-type rhodopsin ([3]; membranes with regenerated rhodopsin): 1350 fold
pH dependence of Gt activation ([3]; pH 6.4 vs 7.4): enhanced at acidic pH
isomeric products in visual pigment after injection of isomer mixture [5]: three isomers

pKa of the light-induced active species [2]: 6.7
Substance: Meta II: catalytically active rhodopsin intermediate containing all-trans-retinal bound to Lys296 of opsin [reference compound]

activity in phosphorylation assay with purified rhodopsin kinase [6]: inactive
Substance: 11-cis-7-ring-rhodopsin: rhodopsin regenerated with 11-cis-7-ring-retinal

Substance: 11-cis-7-ring retinal [isomer 3]
activity relative to wild-type ([3]; regenerated rhodopsin): 0.10%
isomerization when bound to opsin [1]: most stable to isomerization
regeneration of opsin in vivo [5]: readily and preferentially regenerated
FTIR difference spectra of regenerated rhodopsin upon photoactivation [2]: inactive
